Earlier results as cited in US9046534B2, “Methods and systems for identifying and treating anti-progestin sensitive tumors” (INVIVIS PHARMACEUTICALS INC., priority 2011, dated 2015).

Key:
[1] = human subjects; an increase is an undesirable side-effect for breast cancer therapy
[2] = test system: progesterone responsive genes; settings: compared with progestins and other anti-progestins, which activate progesterone responsive genes
breast cancer = settings: first line hormone treatment, small breast cancer study
PR = target: T1, PR (Homo sapiens, UniProt P06401); settings: in vitro systems; aggregates produced by an artificial ligand bound to the PR
T1 sequence (P06401 1-933): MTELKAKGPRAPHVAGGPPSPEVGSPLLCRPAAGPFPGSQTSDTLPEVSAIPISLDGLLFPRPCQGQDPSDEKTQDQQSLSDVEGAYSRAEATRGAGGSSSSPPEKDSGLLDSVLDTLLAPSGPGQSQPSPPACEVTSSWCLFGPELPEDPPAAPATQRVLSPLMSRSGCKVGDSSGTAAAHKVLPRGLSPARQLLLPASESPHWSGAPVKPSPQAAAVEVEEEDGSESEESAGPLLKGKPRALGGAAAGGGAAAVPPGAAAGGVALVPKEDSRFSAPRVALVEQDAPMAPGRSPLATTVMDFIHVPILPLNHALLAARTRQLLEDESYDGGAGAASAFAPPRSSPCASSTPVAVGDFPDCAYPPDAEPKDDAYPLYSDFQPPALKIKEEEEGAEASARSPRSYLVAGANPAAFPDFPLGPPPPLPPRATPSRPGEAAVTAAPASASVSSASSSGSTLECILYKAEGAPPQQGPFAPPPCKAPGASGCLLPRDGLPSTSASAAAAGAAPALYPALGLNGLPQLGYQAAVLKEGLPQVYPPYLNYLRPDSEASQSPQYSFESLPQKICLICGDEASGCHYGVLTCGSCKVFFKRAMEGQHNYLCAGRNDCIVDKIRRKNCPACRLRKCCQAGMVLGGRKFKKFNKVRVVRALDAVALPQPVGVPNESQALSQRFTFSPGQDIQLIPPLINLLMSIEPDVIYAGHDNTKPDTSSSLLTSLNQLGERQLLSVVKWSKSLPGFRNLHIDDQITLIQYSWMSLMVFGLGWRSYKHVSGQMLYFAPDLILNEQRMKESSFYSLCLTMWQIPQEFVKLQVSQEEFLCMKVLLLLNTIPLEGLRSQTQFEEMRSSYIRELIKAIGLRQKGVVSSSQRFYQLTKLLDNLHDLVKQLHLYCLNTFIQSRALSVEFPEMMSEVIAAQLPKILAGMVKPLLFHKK

advanced breast cancer = settings: 101 poor prognosis patients with advanced breast cancer, progressed despite prior hormonal therapy (tamoxifen)

effect on PR nuclear aggregates (PR): reverse the PR nuclear aggregates
SMILES: CN(C)c1ccc([C@H]2C[C@]3(C)[C@@H](CC[C@]3(O)CCCO)C3CCC4=CC(=O)CCC4=C32)cc1 (stereo in doubt) [Onapristone, (8S,11R,13R,14S,17S)-11-[4-(dimethylamino)phenyl]-17-hydroxy-17-(3-hydroxypropyl)-13-methyl-1,2,6,7,8,11,12,14,15,16-decahydrocyclopenta[a]phenanthren-3-one]
effect on estrogen secretion [1]: does not increase estrogen secretion
activation of progesterone responsive genes (number of genes activated) [2]: 3 genes
objective response rate (breast cancer): 56%
response rate (advanced breast cancer): 10%
